Laboratory results taken from patent US8574607B2, “Spiroheterocyclic thiofuran dione derivatives” (Syngenta Crop Protection, Inc., priority 2009, dated 2013).
Like-named read-outs stand apart in the source and are kept apart here.

Experiments:
[1] = tested on: Myzus persicae (Green Peach Aphid); details: 144 h, read-out: activity (mortality)
[2] = tested on: Tetranychus urticae (Two-Spotted Spider Mite); details: foliar, 192 h, read-out: activity (egg, larval and adult mortality)
[3] = tested on: Myzus persicae (Green Peach Aphid); experiment: Example B1: Myzus persicae, mixed population, feeding/residual contact activity, preventive (sprayed sunflower leaf discs); details: foliar, 144 h, read-out: activity (mortality)
[4] = tested on: Thrips tabaci (Onion Thrips); details: foliar, 144 h, read-out: activity (mortality)
[5] = tested on: Myzus persicae (Green Peach Aphid); experiment: Example B11: Myzus persicae, mixed population, feeding/residual contact activity (sprayed pepper plants); assay type: in vivo; details: 144 h, spray chamber, 6 days after treatment, read-out: activity against Myzus persicae (mortality)
[6] = tested on: Aphis craccivora (Cowpea Aphid); experiment: Example B8: Aphis craccivora, mixed population, systemic/feeding (roots of pea seedlings in test solution); assay type: in vivo; details: 144 h, read-out: activity (mortality)
Source text: (§1) Activity Against Aphis craccivora (Cowpea Aphid)
(Mixed Population, Systemic/Feeding)
6 days later, samples are checked for mortality.

[7] = tested on: Myzus persicae (Green Peach Aphid); experiment: Example B10: drench activity against Myzus persicae (pea seedlings in field soil); details: 168 h, read-out: drench activity (mortality)
[8] = tested on: Nilaparvata lugens (Brown Rice Planthopper); experiment: Example B6: Nilaparvata lugens, larvicide, feeding/contact (rice seedlings); details: in Oryza sativa, read-out: activity (mortality, growth regulation, effects on F1 generation)
[9] = tested on: Aphis craccivora (Cowpea Aphid); experiment: whole plant or invertebrate; details: in Phaseolus vulgaris, 120 h, read-out: translaminar activity (mortality)
[10] = tested on: Aphis craccivora (Cowpea Aphid); experiment: whole plant or invertebrate; assay type: in vivo; details: 144 h, read-out: activity (mortality)
Source text: as §1
(Mixed Population, Contact/Feeding)
6 days after treatment, samples are checked for mortality.

CCC(C)(C)C(=O)OC1=C(c2c(C)cc(C)cc2C)C(=O)OC12CCN(OC)CC2 [P1.10]
mortality at 400 ppm [1]: > 80% | mortality at 400 ppm [2]: > 80% | mortality at 400 ppm [3]: > 80%

CON1CCC2(CC1)OC(=O)C(c1c(C)cc(C)c(Cl)c1C)=C2O [P2.13]
mortality at 400 ppm [1]: > 80% | mortality at 400 ppm [2]: > 80%

CCON1CCC2(CC1)OC(=O)C(c1c(C)cc(C)cc1C)=C2O [P2.12]
mortality at 400 ppm [1]: > 80% | mortality at 400 ppm [2]: > 80% | mortality at 400 ppm [4]: > 80% | mortality at 400 ppm [3]: > 80%

CCOC(=O)OC1=C(c2c(C)cc(C)c(Br)c2C)C(=O)OC12CCN(OC)CC2 [P1.39]
melting point: 52 to 54 °C

CCOC(=O)OC1=C(c2cc(C)c(Cl)cc2C)C(=O)OC12CCN(OC)CC2 [P1.33]
mortality at 400 ppm [1]: > 80%

CON1CCC2(CC1)OC(=O)C(c1c(Br)cc(C)cc1Br)=C2O [P2.40]
mortality at 400 ppm [2]: > 80%

CCOC(=O)OC1=C(c2ccc(C)cc2C)C(=O)OC12CCN(OC)CC2 [P1.13]
mortality at 400 ppm [1]: > 80% | mortality at 400 ppm [4]: > 80% | mortality at 400 ppm [3]: > 80% | mortality at 200 ppm [5]: ≥ 80%

CCOC(=O)OC1=C(c2c(C)cc(C)cc2C)C(=O)OC12CCN(OC)CC2 [P1.5, Carbonic acid ethyl ester 8-methoxy-2-oxo-3-(2,4,6-trimethylphenyl)-1-oxa-8-aza-spiro[4.5]dec-3-en-4-yl ester]
mortality at 400 ppm [1]: > 80% | mortality at 400 ppm [3]: > 80%

CON1CCC2(CC1)OC(=O)C(c1c(C)cc(C)cc1C)=C2OC(=O)C(C)(C)C [P1.6]
mortality at 400 ppm [1]: > 80% | mortality at 400 ppm [3]: > 80% | mortality at 200 ppm [5]: ≥ 80%

C=Cc1cc(C)c(C2=C(O)C3(CCN(OC)CC3)OC2=O)c(C)c1 [P2.7]
mortality at 400 ppm [1]: > 80% | mortality at 400 ppm [3]: > 80%

CON1CCC2(CC1)OC(=O)C(c1c(C)cc(C)cc1C1CC1)=C2O [P2.49]
mortality at 400 ppm [1]: > 80% | mortality at 400 ppm [2]: > 80% | mortality at 400 ppm [3]: > 80%

CCOC(=O)OC1=C(c2c(C)cc(C)cc2C)C(=O)OC12CCN(OCC)CC2 [P1.17]
mortality at 400 ppm [1]: > 80% | mortality at 400 ppm [2]: > 80% | mortality at 400 ppm [4]: > 80% | mortality at 400 ppm [3]: > 80%

CCOC(=O)OC1=C(c2c(C)cc(Cl)cc2C)C(=O)OC12CCN(OC)CC2 [P1.11]
mortality at 400 ppm [1]: > 80% | mortality at 400 ppm [2]: > 80% | mortality at 25 ppm ([6]; 25 ppm, roots in test solution, 6 days): > 80% | mortality at 25 ppm [7]: > 80% | mortality at 400 ppm [8]: > 80% | mortality at 400 ppm [3]: > 80% | mortality at 200 ppm [5]: ≥ 80%

CCOC(=O)OC1=C(c2c(C)cc(C)cc2C)C(=O)OC12CCN(OCCOC)CC2 [P1.19]
mortality at 400 ppm [1]: > 80% | mortality at 400 ppm [2]: > 80%

COCCON1CCC2(CC1)OC(=O)C(c1c(C)cc(C)cc1C)=C2O [P2.14]
mortality at 400 ppm [2]: > 80% | mortality at 400 ppm [4]: > 80%

CCOC(=O)OC1=C(c2c(C)cccc2C)C(=O)OC12CCN(OC)CC2 [P1.40]
melting point: 93 to 94 °C

CCOC(=O)OC1=C(c2cc(C)ccc2C)C(=O)OC12CCN(OC)CC2 [P1.1, Carbonic acid 3-(2,5-dimethyl-phenyl)-8-methoxy-2-oxo-1-oxa-8-aza-spiro[4.5]dec-3-en-4-yl ester ethyl ester]
mortality at 400 ppm [1]: > 80% | mortality at 200 ppm [5]: ≥ 80%

CCOC(=O)OC1=C(c2c(C)cc(C)cc2C)C(=O)SC12CCN(OC)CC2 [P1.7, Carbonic acid ethyl ester 8-methoxy-2-oxo-3-(2,4,6-trimethylphenyl)-1-thia-8-aza-spiro[4.5]dec-3-en-4-yl ester]
mortality at 400 ppm [3]: > 80%

CON1CCC2(CC1)OC(=O)C(c1ccc(C)cc1C)=C2O [P2.8]
mortality at 400 ppm [1]: > 80% | mortality at 400 ppm [3]: > 80% | mortality at 200 ppm [5]: ≥ 80%

CON1CCC2(CC1)OC(=O)C(c1c(C)cc(Br)cc1C)=C2O [P2.5]
mortality at 400 ppm [1]: > 80% | mortality at 400 ppm [3]: > 80%

C=Cc1cc(C)cc(C)c1C1=C(O)C2(CCN(OC)CC2)OC1=O [P2.50]
mortality at 400 ppm [1]: > 80% | mortality at 400 ppm [3]: > 80%

CON1CCC2(CC1)OC(=O)C(c1ccc(Cl)cc1)=C2O [P2.35]
mortality at 400 ppm [2]: > 80%

CCOC(=O)OC1=C(c2c(C)ccc(Cl)c2C)C(=O)OC12CCN(OC)CC2 [P1.15]
mortality at 400 ppm [2]: > 80%

CCOC(=O)OC1=C(c2cc(C)c(C)cc2C)C(=O)OC12CCN(OC)CC2 [P1.3]
mortality at 400 ppm [1]: > 80% | mortality at 400 ppm [3]: > 80% | mortality at 200 ppm [5]: ≥ 80%

CON1CCC2(CC1)OC(=O)C(c1c(C)cc(Cl)cc1C)=C2O [P2.6]
mortality at 400 ppm [2]: > 80% | mortality at 400 ppm [3]: > 80%

CON1CCC2(CC1)OC(=O)C(c1c(C)cc(Br)cc1Cl)=C2O [P2.47]
mortality at 200 ppm [5]: ≥ 80%

CCOC(=O)OC1=C(c2c(C)cc(C)cc2C2CC2)C(=O)OC12CCN(OC)CC2 [P1.34]
mortality at 400 ppm [1]: > 80% | mortality at 400 ppm [2]: > 80%

CCOC(=O)OC1=C(c2cc(C)ccc2OC)C(=O)OC12CCN(OC)CC2 [P1.16]
melting point: 81 to 83 °C

CCOC(=O)OC1=C(c2ccc(Cl)cc2Cl)C(=O)OC12CCN(OC)CC2 [P1.14]
mortality at 400 ppm [1]: > 80% | mortality at 400 ppm [3]: > 80%

CON1CCC2(CC1)OC(=O)C(c1cc(C)ccc1C)=C2OC(=O)C(C)(C)C [P1.2]
mortality at 400 ppm [1]: > 80% | mortality at 400 ppm [3]: > 80%

CCOC(=O)OC1=C(c2c(C)cc(C)c(Cl)c2C)C(=O)OC12CCN(OC)CC2 [P1.18]
mortality at 400 ppm [1]: > 80%

CON1CCC2(CC1)OC(=O)C(c1c(C)cc(C)cc1C)=C2O [P2.3, 4-hydroxy-8-methoxy-3-(2,4,6-trimethyl-phenyl)-1-oxa-8-aza-spiro[4.5]dec-3-en-2-one]
mortality at 400 ppm [1]: > 80% | mortality at 400 ppm [2]: > 80% | mortality at 25 ppm [6]: > 80% | mortality at 25 ppm [7]: > 80% | mortality at 400 ppm [8]: > 80% | mortality at 400 ppm [9]: > 80% | mortality at 400 ppm [3]: > 80% | mortality at 400 ppm [10]: > 80%

COc1ccccc1C1=C(O)C2(CCN(OC)CC2)OC1=O [P2.34]
mortality at 400 ppm [3]: > 80%

CCc1cc(C)cc(C)c1C1=C(O)C2(CCN(OC)CC2)OC1=O [P2.51]
mortality at 400 ppm [1]: > 80% | mortality at 400 ppm [2]: > 80% | mortality at 400 ppm [3]: > 80%

C=Cc1cc(C)c(C2=C(OC(=O)OCC)C3(CCN(OC)CC3)OC2=O)c(C)c1 [P1.12]
mortality at 400 ppm [1]: > 80%

CON1CCC2(CC1)OC(=O)C(c1c(C)cc(C)cc1C)=C2OC(=O)CC(C)(C)C [P1.9]
mortality at 400 ppm [1]: > 80% | mortality at 400 ppm [3]: > 80%

CON1CCC2(CC1)SC(=O)C(c1c(C)cc(C)cc1C)=C2O [P2.4, 4-hydroxy-8-methoxy-3-(2,4,6-trimethyl-phenyl)-1-thia-8-aza-spiro[4.5]dec-3-en-2-one]
mortality at 400 ppm [2]: > 80% | mortality at 400 ppm [3]: > 80%

CON1CCC2(CC1)OC(=O)C(c1ccc(F)cc1)=C2O [P2.20]
mortality at 400 ppm [2]: > 80%

CCOC(=O)OC1=C(c2c(F)ccc(Br)c2Cl)C(=O)OC12CCN(OC)CC2 [P1.29]
mortality at 400 ppm [2]: > 80%

CON1CCC2(CC1)OC(=O)C(c1cc(C)c(C)cc1C)=C2OC(=O)C(C)(C)C [P1.4]
mortality at 400 ppm [1]: > 80% | mortality at 400 ppm [3]: > 80% | mortality at 200 ppm [5]: ≥ 80%

COc1c(Cl)cccc1C1=C(O)C2(CCN(OC)CC2)OC1=O [P2.37]
mortality at 400 ppm [3]: > 80%

CON1CCC2(CC1)OC(=O)C(c1ccc(Cl)cc1Cl)=C2O [P2.9]
mortality at 400 ppm [2]: > 80%

CON1CCC2(CC1)OC(=O)C(c1cc(C)ccc1C)=C2O [P2.1, 3-(2,5-dimethyl-phenyl)-4-hydroxy-8-methoxy-1-oxa-8-aza-spiro[4.5]dec-3-en-2-one]
mortality at 400 ppm [1]: > 80% | mortality at 400 ppm [3]: > 80% | mortality at 200 ppm [5]: ≥ 80%

CCOC(=O)OC1=C(c2c(Cl)cc(Br)cc2Cl)C(=O)OC12CCN(OC)CC2 [P1.30]
melting point: 122 to 125 °C

CON1CCC2(CC1)OC(=O)C(c1cc(C)c(Cl)cc1C)=C2O [P2.48]
mortality at 200 ppm [5]: ≥ 80%

CON1CCC2(CC1)OC(=O)C(c1cc(C)c(C)cc1C)=C2O [P2.2, 4-Hydroxy-8-methoxy-3-(2,4,5-trimethyl-phenyl)-1-oxa-8-aza-spiro[4.5]dec-3-en-2-one]
mortality at 400 ppm [1]: > 80% | mortality at 400 ppm [4]: > 80% | mortality at 400 ppm [3]: > 80% | mortality at 200 ppm [5]: ≥ 80%

CCOC(=O)OC1=C(c2c(C)cc(Br)cc2C)C(=O)OC12CCN(OC)CC2 [P1.8]
mortality at 400 ppm [1]: > 80%
